Assay [1] has as its target EGFR (human), P00533 [WT].
Assay [2] addresses EGFR (Human), P00533 [T790M/L858R].
In assay [3] the target is EGFR (human), P00533 [T790M].
In the next assay the target is EGFR (human) (UniProt P00533).

The structures appear in SMILES notation.

One may read the IC50 as the midpoint of a concentration-inhibition curve. A lower IC50 goes with greater potency.

Sequence of EGFR (human), P00533 [WT] (P00533 whole entry, looked up): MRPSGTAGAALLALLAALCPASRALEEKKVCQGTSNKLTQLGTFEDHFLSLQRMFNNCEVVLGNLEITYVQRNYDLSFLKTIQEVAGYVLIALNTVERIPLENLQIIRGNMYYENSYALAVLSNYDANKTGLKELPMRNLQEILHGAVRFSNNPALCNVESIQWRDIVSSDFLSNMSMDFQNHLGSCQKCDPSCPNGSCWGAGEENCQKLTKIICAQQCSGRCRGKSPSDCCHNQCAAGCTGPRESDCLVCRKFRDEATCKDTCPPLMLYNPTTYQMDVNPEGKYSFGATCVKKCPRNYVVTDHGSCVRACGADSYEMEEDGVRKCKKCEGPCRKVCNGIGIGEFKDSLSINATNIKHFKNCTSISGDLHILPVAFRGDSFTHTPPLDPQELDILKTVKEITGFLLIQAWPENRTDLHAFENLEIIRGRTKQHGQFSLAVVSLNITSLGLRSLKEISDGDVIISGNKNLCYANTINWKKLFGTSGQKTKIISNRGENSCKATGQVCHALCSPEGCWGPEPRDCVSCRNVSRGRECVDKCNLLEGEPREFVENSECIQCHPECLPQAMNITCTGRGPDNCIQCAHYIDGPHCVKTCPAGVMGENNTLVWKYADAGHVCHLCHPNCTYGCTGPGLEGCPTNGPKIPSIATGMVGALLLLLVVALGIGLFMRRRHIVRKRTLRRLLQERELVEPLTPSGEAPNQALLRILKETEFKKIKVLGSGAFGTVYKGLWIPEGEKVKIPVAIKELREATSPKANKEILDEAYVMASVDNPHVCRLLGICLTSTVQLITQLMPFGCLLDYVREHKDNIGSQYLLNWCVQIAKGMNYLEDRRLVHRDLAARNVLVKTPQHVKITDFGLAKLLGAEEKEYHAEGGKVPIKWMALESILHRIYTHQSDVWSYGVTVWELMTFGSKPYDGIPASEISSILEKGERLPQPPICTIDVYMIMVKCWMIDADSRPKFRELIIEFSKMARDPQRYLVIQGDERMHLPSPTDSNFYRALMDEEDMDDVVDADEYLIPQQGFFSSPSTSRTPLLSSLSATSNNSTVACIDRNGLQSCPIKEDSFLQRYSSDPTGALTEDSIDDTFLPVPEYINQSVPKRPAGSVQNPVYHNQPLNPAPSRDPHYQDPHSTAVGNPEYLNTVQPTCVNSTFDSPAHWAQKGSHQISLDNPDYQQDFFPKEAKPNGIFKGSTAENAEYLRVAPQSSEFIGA
Sequence of EGFR (Human), P00533 [T790M/L858R] (P00533 whole entry T790M/L858R, looked up): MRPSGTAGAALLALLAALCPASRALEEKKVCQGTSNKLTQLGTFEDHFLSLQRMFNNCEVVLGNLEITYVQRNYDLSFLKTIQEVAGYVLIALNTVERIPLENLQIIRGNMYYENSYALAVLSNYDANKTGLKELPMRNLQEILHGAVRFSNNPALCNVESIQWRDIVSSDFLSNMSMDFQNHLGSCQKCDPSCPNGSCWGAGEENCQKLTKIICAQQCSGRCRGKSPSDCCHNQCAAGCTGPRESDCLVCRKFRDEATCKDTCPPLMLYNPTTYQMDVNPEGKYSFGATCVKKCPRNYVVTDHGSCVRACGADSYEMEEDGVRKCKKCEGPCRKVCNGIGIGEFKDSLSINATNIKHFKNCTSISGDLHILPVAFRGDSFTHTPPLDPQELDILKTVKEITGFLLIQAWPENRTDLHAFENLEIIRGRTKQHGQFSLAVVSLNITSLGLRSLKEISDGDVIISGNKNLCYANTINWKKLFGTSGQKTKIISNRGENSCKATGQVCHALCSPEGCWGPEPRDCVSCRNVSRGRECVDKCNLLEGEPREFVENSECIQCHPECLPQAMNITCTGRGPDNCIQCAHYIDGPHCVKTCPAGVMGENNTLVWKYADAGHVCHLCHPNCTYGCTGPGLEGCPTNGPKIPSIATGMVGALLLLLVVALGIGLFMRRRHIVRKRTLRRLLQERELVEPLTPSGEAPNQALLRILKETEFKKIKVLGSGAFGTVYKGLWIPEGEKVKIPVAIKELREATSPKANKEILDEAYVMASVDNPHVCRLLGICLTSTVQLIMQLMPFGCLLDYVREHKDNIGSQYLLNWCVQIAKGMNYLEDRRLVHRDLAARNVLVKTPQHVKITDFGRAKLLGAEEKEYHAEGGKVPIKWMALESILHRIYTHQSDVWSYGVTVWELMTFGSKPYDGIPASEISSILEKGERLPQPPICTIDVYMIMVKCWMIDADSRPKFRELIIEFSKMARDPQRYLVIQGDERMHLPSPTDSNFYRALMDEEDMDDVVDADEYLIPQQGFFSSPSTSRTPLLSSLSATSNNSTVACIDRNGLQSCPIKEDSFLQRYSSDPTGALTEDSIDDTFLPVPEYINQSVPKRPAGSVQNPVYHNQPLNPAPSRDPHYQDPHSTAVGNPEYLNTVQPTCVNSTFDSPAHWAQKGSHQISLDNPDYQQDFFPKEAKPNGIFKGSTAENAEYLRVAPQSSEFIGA
Sequence of EGFR (human), P00533 [T790M] (P00533 whole entry T790M, looked up): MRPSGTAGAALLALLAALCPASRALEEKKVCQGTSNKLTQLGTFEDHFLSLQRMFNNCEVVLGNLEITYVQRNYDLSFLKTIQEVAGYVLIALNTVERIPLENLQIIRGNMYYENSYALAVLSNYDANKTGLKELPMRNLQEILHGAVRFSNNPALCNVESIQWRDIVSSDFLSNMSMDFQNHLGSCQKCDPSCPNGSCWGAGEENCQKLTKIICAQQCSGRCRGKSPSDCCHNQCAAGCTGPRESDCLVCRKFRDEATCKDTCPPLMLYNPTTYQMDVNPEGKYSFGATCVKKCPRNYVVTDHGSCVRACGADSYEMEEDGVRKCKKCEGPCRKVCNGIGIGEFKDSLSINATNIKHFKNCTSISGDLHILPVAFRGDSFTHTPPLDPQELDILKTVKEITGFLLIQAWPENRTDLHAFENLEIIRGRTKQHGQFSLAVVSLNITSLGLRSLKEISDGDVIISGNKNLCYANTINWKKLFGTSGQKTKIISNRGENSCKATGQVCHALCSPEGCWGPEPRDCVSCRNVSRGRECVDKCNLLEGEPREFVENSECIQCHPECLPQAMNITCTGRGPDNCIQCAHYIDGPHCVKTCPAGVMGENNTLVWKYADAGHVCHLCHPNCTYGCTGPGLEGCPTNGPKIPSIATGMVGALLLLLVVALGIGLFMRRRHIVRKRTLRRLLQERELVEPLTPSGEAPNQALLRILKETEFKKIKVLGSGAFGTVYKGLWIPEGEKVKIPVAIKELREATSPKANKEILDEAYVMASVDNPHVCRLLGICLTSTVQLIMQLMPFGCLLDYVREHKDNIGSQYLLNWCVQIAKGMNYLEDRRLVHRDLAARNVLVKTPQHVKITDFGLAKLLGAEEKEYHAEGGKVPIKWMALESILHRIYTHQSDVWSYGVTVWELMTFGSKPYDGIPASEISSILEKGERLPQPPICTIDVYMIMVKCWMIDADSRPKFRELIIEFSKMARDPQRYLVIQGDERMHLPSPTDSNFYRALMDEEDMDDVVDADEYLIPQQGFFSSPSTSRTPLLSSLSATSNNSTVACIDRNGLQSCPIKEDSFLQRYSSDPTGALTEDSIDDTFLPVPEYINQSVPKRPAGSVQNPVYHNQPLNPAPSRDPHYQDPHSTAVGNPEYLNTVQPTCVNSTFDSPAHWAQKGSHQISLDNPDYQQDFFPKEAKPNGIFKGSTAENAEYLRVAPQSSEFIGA
Sequence of EGFR (human) (P00533 whole entry, looked up): as the sequence (P00533 whole entry, looked up) above

Turning to `C=CC(=O)Nc1cccc(Nc2nc(Nc3ccc(OCC4CCN(C)CC4)nc3)ncc2F)c1`, in assay [1], the IC50 was no more than 10 nM. Consider `Cc1cccc(Nc2nc(Nc3cccc(NC(=O)/C=C/CN(C)C)c3)ncc2F)c1`, for which the IC50 in assay [1], in assay [2] and in assay [3] was no more than 10 nM in each case. In turn, `C=CC(=O)Nc1cccc(Nc2nc(Nc3cccc(CO)c3)ncc2F)c1` gave a 50% inhibitory concentration (IC50) in assay [1] of no more than 10 nM. As to `C=CC(=O)Nc1cccc(Oc2nc(Nc3cccc(N4CCN(CCO)CC4)c3)ncc2F)c1`, in assay [1], the IC50 is no more than 10 nM.

In the case of `C=C(C)C(=O)Cc1cccc(Nc2nc(Nc3ccc(OCCOC)c(F)c3)ncc2F)c1`, the IC50 in assay [1] is no more than 10 nM.

In assay [1], `C=CC(=O)Nc1cccc(Oc2nc(Nc3cccc(OC)c3)ncc2C(=O)Nc2ccccc2)c1` gave an IC50 of no more than 10 nM.

`C=CC(=O)Nc1cccc(Oc2nc(Nc3cccc(OCC4CCN(C)CC4)c3)ncc2F)c1` registered an IC50 in assay [1] of no more than 10 nM. `C=CC(=O)Nc1cccc(Nc2nc(Nc3ccc(OCC4CCN(C)CC4)cc3)ncc2F)c1`: in assay [1], the IC50 is no more than 10 nM. On the same count and under the same terms, in the case of `C=CC(=O)Nc1cccc(Oc2nc(Nc3cccc(OCCCN4CCCC4=O)c3)ncc2F)c1` it was no more than 10 nM. In assay [1], `C=CC(=O)Nc1cccc(Nc2nc(Nc3cccc(OCC4CCCN(C)C4)c3)ncc2F)c1` (centres undefined) yielded an IC50 of no more than 10 nM.

In turn, `C=CC(=O)Nc1ccc(Nc2nc(Nc3ccc(OC)nc3)ncc2C(F)(F)F)cc1` showed an IC50 in assay [1] of no more than 10 nM.

For `Cc1cnc(Nc2cccc(S(N)(=O)=O)c2)nc1Nc1ccc2c(c1)CCN(C(=O)CCl)C2`, the IC50 in assay [1] and in assay [2] was no more than 10 nM in each case.

As to `C=CC(=O)Nc1ccc(C)c(Nc2ncc(C)c(Nc3cccc(C)c3)n2)c1`, the IC50 in assay [1] and in assay [2] was no more than 10 nM throughout. `C=CC(=O)Nc1cccc(Oc2nc(Nc3ccc(OC)nc3)ncc2C(C)=O)c1`: in assay [1], the IC50 is no more than 10 nM. On the same count and under the same terms, the result for `C=CC(=O)Nc1cccc(Oc2nc(Nc3cccc(OCCN4CCCC4=O)c3)ncc2F)c1` reads no more than 10 nM; that for `C=CC(=O)N1CCOc2ccc(Nc3nc(Nc4ccc(N5CCOCC5)cc4)ncc3C(C)=O)cc21`, no more than 10 nM; that for `C=CC(=O)Nc1cccc(Nc2nc(Nc3ccc(OC)nc3)ncc2C2CC2)c1`, no more than 10 nM. Still for that read-out and setting: the result for `COCCN(C)C/C=C/C(=O)Nc1cccc(Nc2ncc(F)c(Nc3cccc(C)c3)n2)c1` reads no more than 10 nM. The same measure, in the same setting: in the case of `Cc1cccc(Nc2nc(Nc3cccc(NC(=O)/C=C/CN4CC[C@H](O)C4)c3)ncc2F)c1` it was no more than 10 nM. For the compound `C=CC(=O)Nc1cccc(Nc2nc(Nc3ccc(OC)nc3)ncc2C#N)c1`, the IC50 in assay [1] is no more than 10 nM. For `C=CC(=O)Nc1cccc(Nc2nc(Nc3ccc4c(c3)CC(=O)N4)ncc2F)c1`, the 50% inhibitory concentration (IC50) in assay [1] is no more than 10 nM.

The compound `C=CC(=O)Nc1cccc(Nc2nc(Nc3ccccc3)ncc2C(F)(F)F)c1` had an IC50 in assay [1] of no more than 10 nM.

In the case of `C=CC(=O)Nc1cccc(Nc2ncc(C)c(Nc3ccccc3)n2)c1`, the IC50 in assay [1] and in assay [2] was no more than 10 nM each time. On to `C=CC(=O)Nc1cccc(Oc2nc(Nc3cccc(OCC4CCCN(C)C4)c3)ncc2F)c1` (centres undefined), for which the 50% inhibitory concentration (IC50) in assay [1] is no more than 10 nM. Take `C=CC(=O)Nc1cccc(Nc2nc(Nc3ccc(OCCOC)cc3)ncc2C#N)c1`: the IC50 in assay [1] is no more than 10 nM. Regarding `Cc1cccc(Nc2nc(Nc3cccc(NC(=O)/C=C/CN(C)C)c3)ncc2C)c1`, the IC50 in assay [1] is no more than 10 nM. `C=CC(=O)Nc1cccc(Nc2nc(Nc3cccc(OCC4CCN(C)CC4)c3)ncc2F)c1`: the IC50 in assay [1] was no more than 10 nM. Compound `C=CC(=O)Nc1cccc(Oc2nc(Nc3ccc(OC)nc3)ncc2C(=O)NC2CC2)c1` showed an IC50 in assay [1] of no more than 10 nM. `C=CC(=O)Nc1cccc(Oc2nc(Nc3ccccc3)ncc2C)c1`: the half-inhibitory concentration (IC50) in assay [1] was no more than 10 nM. Compound `C=CC(=O)Nc1cccc(Nc2nc(Nc3cccc(OCC(O)CO)c3)ncc2F)c1` (centres undefined) gave an IC50 in assay [1] of no more than 10 nM. Regarding `C=CC(=O)Nc1cccc(Nc2nc(Nc3ccc(OCCOC)c(F)c3)ncc2C(F)(F)F)c1`, the IC50 in assay [1] is no more than 10 nM. For `C=CC(=O)Nc1cccc(Nc2nc(Nc3ccc4c(c3)NCCO4)ncc2F)c1`, the IC50 in assay [1] is no more than 10 nM.

As for `C=CC(=O)Nc1cccc(Nc2nc(Nc3cccc(S(N)(=O)=O)c3)ncc2F)c1`, the IC50 in assay [1] was no more than 10 nM.

`C=CC(=O)Nc1cccc(Nc2nc(Nc3ccc(OCC(O)CO)cc3)ncc2F)c1` (centres undefined) registered an IC50 in assay [1] of no more than 10 nM. Compound `C=CC(=O)Nc1cccc(Nc2nc(Nc3cccc(S(N)(=O)=O)c3)ncc2C)c1` yielded an IC50 in assay [1] of no more than 10 nM. `C=CC(=O)Nc1cccc(Oc2nc(Nc3cccc(OC)c3)ncc2C(=O)NC2CC2)c1`: the IC50 in assay [1] is no more than 10 nM. For the compound `C#CCOc1cccc(Nc2ncc(C)c(Nc3cccc(NC(=O)C=C)c3)n2)c1`, in assay [2], the IC50 is no more than 10 nM.

Turning to `C=CC(=O)Nc1cccc(Nc2nc(Nc3ccccc3)ncc2C)c1`, the IC50 in assay [1] and in assay [2] was no more than 10 nM in each case. As to `C=CC(=O)Nc1cccc(Nc2nc(Nc3ccc4c(cnn4C)c3)ncc2F)c1`, in assay [1], the IC50 is no more than 10 nM. `C=CC(=O)Nc1cccc(Nc2nc(Nc3ccc(OCCOC)c(F)c3)ncc2C#N)c1`: the IC50 in assay [1] is no more than 10 nM. Same read-out and setting: the result for `C=CC(=O)Nc1cccc(Nc2nc(Nc3ccc(OCCOC)cc3)ncc2F)c1` reads no more than 10 nM. Compound `Cc1cccc(Nc2nc(Nc3cccc(NC(=O)/C=C/CN4CC[C@@H](O)C4)c3)ncc2F)c1` registered an IC50 in assay [1] of no more than 10 nM.

`C=CC(=O)Nc1cccc(Nc2nc(Nc3ccc(N4CCS(=O)(=O)CC4)nc3)ncc2F)c1` returned an IC50 in assay [1] of no more than 10 nM. Take `C=CC(=O)Nc1cccc(Oc2nc(Nc3cccc(OCCCS(C)(=O)=O)c3)ncc2F)c1`: the IC50 in assay [1] was no more than 10 nM. On the same count and under the same terms, the result for `C=CC(=O)Nc1cccc(Oc2nc(Nc3ccc(OC)nc3)ncc2C)c1` reads no more than 10 nM.

`C=CC(=O)Nc1cccc(Nc2ncc(F)c(Nc3cccc(C)c3)n2)c1`: the IC50 in assay [1], in assay [2] and in assay [3] was no more than 10 nM in each case. Compound `C=CC(=O)Nc1cccc(Nc2nc(Nc3ccccc3)ncc2C#N)c1` displayed an IC50 in assay [1] of no more than 10 nM. Take `C=CC(=O)Nc1ccc(C)c(Nc2nccc(-c3cccnc3)n2)c1`: the IC50 in assay [2] is no more than 10 nM; on EGFR (human), 2.23 nM. Turning to `C=CC(=O)N1CCOc2ccc(Nc3nc(Nc4ccc(OCCOC)cc4)ncc3C(C)=O)cc21`, in assay [1], the IC50 was no more than 10 nM. Turning to `C=CC(=O)Nc1cccc(Nc2ncc(C)c(Nc3cccc(C)c3)n2)c1`, the IC50 in assay [2] and in assay [3] was no more than 10 nM in each case. With `C=CC(=O)Nc1cccc(Nc2nc(Nc3cccc(OCCCN4CCCC4=O)c3)ncc2F)c1`, the IC50 in assay [1] was no more than 10 nM. `C=CC(=O)Nc1cccc(Nc2nc(Nc3ccc(OCCOC)c(F)c3)ncc2F)c1`: the IC50 in assay [2] and in assay [3] was no more than 10 nM throughout. In assay [1], `C=CC(=O)Nc1cccc(Nc2nc(Nc3ccc4[nH]ncc4c3)ncc2F)c1` had an IC50 of no more than 10 nM. As for `C=CC(=O)N1CCC[C@@H](Nc2nc(Nc3cccc(Cl)c3)ncc2F)C1`, the IC50 in assay [1] was no more than 10 nM. As to `C=CC(=O)Nc1cccc(Nc2nccc(Nc3cccc(C)c3)n2)c1`, the IC50 in assay [1] and in assay [2] was no more than 10 nM throughout. In assay [1], `C=CC(=O)Nc1cccc(Nc2nc(Nc3ccc(OCC(O)CO)c(F)c3)ncc2F)c1` (centres undefined) displayed a concentration for half-maximal inhibition (IC50) of no more than 10 nM. The same measure, in the same setting: in the case of `C=CC(=O)Nc1cccc(Nc2nc(Nc3cccc(OCCN(C)C)c3)ncc2F)c1` it was no more than 10 nM; in that of `C=CC(=O)Nc1cccc(Nc2nc(Nc3ccc(OCCCNC(=O)OC(C)(C)C)cc3)ncc2F)c1`, no more than 10 nM. For the compound `Cc1cnc(Nc2ccccc2)nc1Nc1cccc(NC(=O)/C=C/CN(C)C)c1`, the IC50 in assay [2] is no more than 10 nM. In assay [1], `C=CC(=O)Nc1cccc(Oc2nc(Nc3ccc(OCCOC)cc3)ncc2C2CC2)c1` had an IC50 of no more than 10 nM. As for `C=CC(=O)Nc1cccc(Oc2nc(Nc3ccc(OC)nc3)ncc2C(=O)Nc2ccccc2)c1`, the IC50 in assay [1] was no more than 10 nM. On the same count and under the same terms, in the case of `C=CC(=O)Nc1cccc(Oc2nc(Nc3cccc(OC)c3)ncc2C(N)=O)c1` it was no more than 10 nM.

The record behind these values is the Kinase Knowledgebase extract (Sharma et al. 2016).
